Data on two molecules can be found in PubChem BioAssay (NCI).

Structures are written as SMILES.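 Test compounds were applied to cells in 96-well plates for 48 hours at 5 doses. GI50 = concentration required for 50% inhibition of growth. TGI: total growth inhibition.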

Test systems include HCT-15 colon; NCI-H460 lung; NCI/ADR-RES ovarian; OVCAR-5 ovarian; PC-3 prostate; RXF 393 renal; SK-MEL-5 melanoma; SW-620 colon; T-47D breast; U251 CNS.
Common to all, as to assay: DTP human tumour cell line panel, 48 h

In general, TGI refers to the concentration at which net growth stops. Read a low TGI as more potent growth arrest. For `O=C(O)c1cc(N=Cc2ccccc2O)cc(C(=O)O)c1`, the total growth inhibition concentration (TGI) in the test on HCT-15 colon, in the test on NCI-H460 lung, in the test with NCI/ADR-RES ovarian, in the test with OVCAR-5 ovarian, with PC-3 prostate and with RXF 393 renal was above 100 µM in each case. The TGI in the test with SK-MEL-5 melanoma, with SW-620 colon, in the test on T-47D breast and in the test on U251 CNS was above 100 µM in each case.
In general, GI50 refers to the concentration giving 50% growth inhibition. With `NS(=O)(=O)c1cccc(N=Cc2c(O)[nH]c3ccccc23)c1`, the GI50 in the test on HCT-15 colon, in the test on NCI-H460 lung, in the test on NCI/ADR-RES ovarian, in the test with OVCAR-5 ovarian, with PC-3 prostate and in the test on RXF 393 renal was above 25 µM each time. Besides, the GI50 in the test on SK-MEL-5 melanoma, in the test on SW-620 colon, in the test with T-47D breast and in the test on U251 CNS was above 25 µM in each case. Further, the TGI in the test on HCT-15 colon, in the test on NCI-H460 lung, with NCI/ADR-RES ovarian, in the test with OVCAR-5 ovarian, in the test on PC-3 prostate and in the test on RXF 393 renal was above 25 µM each time. For the same molecule, the TGI in the test with SK-MEL-5 melanoma, with SW-620 colon, in the test on T-47D breast and in the test on U251 CNS was above 25 µM throughout.
